Values of other authors as cited in US20250134912A1 (Theaprin Pharmaceuticals, Inc., priority 2021, published 2025).

How the values were obtained:
[1] = tested on: critically ill children with suspected zinc deficiency; conditions: in vivo, iv, 0.75 mg/kg/day
[2] = tested on: hospitalized patients with COVID-19; conditions: aspirin used was not an aspirin/theanine cocrystal
patients with COVID-19 = conditions: 31 patients with COVID-19, in comparison to the controlled patients
SARS-COV-2 = conditions: SARS-COV-2, in vitro
[3] = at 25° C.

[Zn] [Elemental zinc]
adverse effects [1]: without producing any adverse effects

CC(=O)Oc1ccccc1C(=O)O [aspirin, acetylsalicylic acid]
mechanical ventilation, ICU admission, and in-hospital mortality [2]: decrease

OCCN(CCO)c1nc(N2CCCCC2)c2nc(N(CCO)CCO)nc(N3CCCCC3)c2n1 [dipyridamole, 2,6 bis-(diethanolamino)-4,8 dipiperidino-pyrimido-(5,4-d)pyrimidine]
clinical outcomes (patients with COVID-19): markedly improved | lymphocyte and plasma platelet recovery (patients with COVID-19): increased | D-Dimer (patients with COVID-19; P>0.05): significantly decreased | viral replication in vitro (SARS-COV-2): suppressed

[Cl-].[Cl-].[Zn+2] [zinc chloride, Zinc chloride]
water solubility [3]: 432 g/100 ml water
